# Literature values, collected in patent US20210235730A1, “FOOD PROTECTION OF FRUIT, CEREAL AND VEGETABLE AND DERIVATIVES” (Hawei Technologies Co., Ltd., priority 2018, published 2021).
# Columns and labels:
# moulds and yeasts = conditions: raw pork, heat-treated and pasteurised
# [1] = test system: coliform microorganisms and arerobic spore-forming microorganisms; conditions: raw pork, heat-treated and pasteurised
smiles,measurement,setting,value
N=C(N)N [guanidium],effect on growth of moulds and yeasts,moulds and yeasts,has an effect on the growth
same,effect on coliform and aerobic spore-forming microorganisms,[1],not significantly influenced
